Target: T1, AsPC-1 HiBiT-KRASG12D (Homo sapiens, UniProt P01116, G12D)
T1 construct: insert the HiBiT tag onto the N-terminus of one or more of the endogenous KRAS alleles; endogenous in cells; host or cells: AsPC-1 (ATCC CRL-1682), CRISPR-Cas9 knock-in clone, one tagged allele
Assay: HiBiT degradation assay (G12D), AsPC-1 HiBiT-KRASG12D cells
Type: cell-based
Conditions: 24 hours treatment; for Dmax: ASPC1, AsPC-1 HiBiT-KRASG12D cells, maximum degradation observed; for DC50: AsPC-1 HiBiT-KRASG12D cells, HiBiT luminescence
In short: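 Endogenous KRASG12D levels were measured via an N-terminal HiBiT tag knocked into AsPC-1 cells. Cells received compound titrations for 24 hours, and HiBiT luminescence was detected after a 45-minute lytic reagent incubation at room temperature.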

T1 sequence (P01116 1-188 isoform P01116-2 G12D): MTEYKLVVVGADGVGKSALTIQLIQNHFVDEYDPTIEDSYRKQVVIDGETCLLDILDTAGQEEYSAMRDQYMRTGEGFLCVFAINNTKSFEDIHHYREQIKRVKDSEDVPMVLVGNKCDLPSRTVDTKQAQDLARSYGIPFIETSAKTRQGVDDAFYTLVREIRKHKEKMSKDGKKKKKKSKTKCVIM

`CCc1cccc2cc(O)cc(-c3ncc4c(N5CC6CCC(C5)N6)nc(O[C@H](C)CN5CCC6(CC5)CN(c5cc([C@H](C(=O)N7C[C@H](O)C[C@H]7C(=O)N[C@@H](C)c7ccc(-c8scnc8C)cc7)C(C)C)on5)C6)nc4c3F)c12` [Compound 25, (2S,4R)-1-[(2R)-2-(3-{7-[(2R)-2-[(4-{3,8-diazabicyclo[3.2.1]octan-3-yl}-7-(8-ethyl-3-hydroxynaphthalen-1-yl)-8-fluoropyrido[4,3-d]pyrimidin-2-yl)oxy]propyl]-2,7-diazaspiro[3.5]nonan-2-yl}-1,2-oxazol-5-yl)-3-methylbutanoyl]-4-hydroxy-N-[(1S)-1-[4-(4-methyl-1,3-thiazol-5-yl)phenyl]ethyl]pyrrolidine-2-carboxamide] gave a Dmax of 20 to 60% and a DC50 of 0.6 to 1 µM.

For `CCc1cccc2cc(O)cc(-c3ncc4c(N5CC6CCC(C5)N6)nc(OC[C@]56CCCN5[C@H](COC(=O)N5CCN(c7cc([C@@H](C(=O)N8C[C@H](O)C[C@H]8C(=O)N[C@@H](C)c8ccc(-c9scnc9C)cc8)C(C)C)on7)[C@@H](C)C5)CC6)nc4c3F)c12` [Compound 124, [(3S,7aR)-7a-{[(4-{3,8-diazabicyclo[3.2.1]octan-3-yl}-7-(8-ethyl-3-hydroxynaphthalen-1-yl)-8-fluoropyrido[4,3-d]pyrimidin-2-yl)oxy]methyl}-hexahydro-1H-pyrrolizin-3-yl]methyl (3S)-4-{5-[(2S)-1-[(2S,4R)-4-hydroxy-2-{[(1S)-1-[4-(4-methyl-1,3-thiazol-5-yl)phenyl]ethyl]carbamoyl}pyrrolidin-1-yl]-3-methyl-1-oxobutan-2-yl]-1,2-oxazol-3-yl}-3-methylpiperazine-1-carboxylate], the Dmax was under 20% and the DC50 was under 0.6 µM.

`C#Cc1c(F)ccc2cc(O)cc(-c3ncc4c(N5CC6CCC(C5)N6)nc(OCCN5CCC(F)(CN6CCN(c7cc([C@H](C(=O)N8C[C@H](O)C[C@H]8C(=O)N[C@@H](C)c8ccc(-c9scnc9C)cc8)C(C)C)on7)CC6)CC5)nc4c3F)c12` [Compound 172, (2S,4R)-1-[(2R)-2-(3-{4-[(1-{2-[(4-{3,8-diazabicyclo[3.2.1]octan-3-yl}-7-(8-ethynyl-7-fluoro-3-hydroxynaphthalen-1-yl)-8-fluoropyrido[4,3-d]pyrimidin-2-yl)oxy]ethyl}-4-fluoropiperidin-4-yl)methyl]piperazin-1-yl}-1,2-oxazol-5-yl)-3-methylbutanoyl]-4-hydroxy-N-[(1S)-1-[4-(4-methyl-1,3-thiazol-5-yl)phenyl]ethyl]pyrrolidine-2-carboxamide] gave a Dmax of 80 to 100% and a DC50 of under 0.6 µM.

With `C#Cc1c(F)ccc2cc(O)cc(-c3ncc4c(N5CC6CCC(C5)N6)nc(OCCN5CCC(OC6CN(c7cc([C@@H](C(=O)N8C[C@H](O)C[C@H]8C(=O)N[C@@H](C)c8ccc(-c9scnc9C)cc8)C(C)C)on7)C6)CC5)nc4c3F)c12` [Compound 158] the Dmax was 80 to 100% and the DC50 was under 0.6 µM.

In the case of `CCc1cccc2cc(O)cc(-c3ncc4c(N5CC6CCC(C5)N6)nc(OCCN5CCC(C)(COc6cc([C@H](C(=O)N7C[C@H](O)C[C@H]7C(=O)N[C@@H](C)c7ccc(-c8scnc8C)cc7)C(C)C)on6)CC5)nc4c3F)c12` [Compound 32, (2S,4R)-1-[(2R)-2-{3-[(1-{2-[(4-{3,8-diazabicyclo[3.2.1]octan-3-yl}-7-(8-ethyl-3-hydroxynaphthalen-1-yl)-8-fluoropyrido[4,3-d]pyrimidin-2-yl)oxy]ethyl}-4-methylpiperidin-4-yl)methoxy]-1,2-oxazol-5-yl}-3-methylbutanoyl]-4-hydroxy-N-[(1S)-1-[4-(4-methyl-1,3-thiazol-5-yl)phenyl]ethyl]pyrrolidine-2-carboxamide], the Dmax is reported as 80 to 100% and the DC50 is reported as under 0.6 µM.

Compound `CCc1cccc2cc(O)cc(-c3ncc4c(N5CC6CCC(C5)N6)nc(OCCN5C[C@@H]6CN(c7cc([C@@H](C(=O)N8C[C@H](O)C[C@H]8C(=O)N[C@@H](C)c8ccc(-c9scnc9C)cc8)C(C)C)on7)C[C@H]6C5)nc4c3F)c12` (relative stereo) [Compound 78, (2S,4R)-1-[(2R*)-2-{3-[(3aR,6aR)-5-{2-[(4-{3,8-diazabicyclo[3.2.1]octan-3-yl}-7-(8-ethyl-3-hydroxynaphthalen-1-yl)-8-fluoropyrido[4,3-d]pyrimidin-2-yl)oxy]ethyl}-octahydropyrrolo[3,4-c]pyrrol-2-yl]-1,2-oxazol-5-yl}-3-methylbutanoyl]-4-hydroxy-N-[(1S)-1-[4-(4-methyl-1,3-thiazol-5-yl)phenyl]ethyl]pyrrolidine-2-carboxamide] has a Dmax of 20 to 60% and a DC50 of 1 to 3 µM.

`CCc1cccc2cc(O)cc(-c3ncc4c(N5CC6CCC(C5)N6)nc(N5CC(N6CCC(CC7CN(c8cc([C@H](C(=O)N9C[C@H](O)C[C@H]9C(=O)N[C@@H](C)c9ccc(-c%10scnc%10C)cc9)C(C)C)on8)C7)CC6)C5)nc4c3F)c12` [Compound 165] was tested, and the Dmax was 20 to 60% and the DC50 was under 0.6 µM.

With `CCc1cccc2cc(O)cc(-c3ncc4c(N5CC6CCC(C5)N6)nc(OC[C@]56CCCN5[C@H](COc5cc([C@@H](C(=O)N7C[C@H](O)C[C@H]7C(=O)N[C@@H](C)c7ccc(-c8scnc8C)cc7)C(C)C)on5)CC6)nc4c3F)c12` [Compound 324, (2S,4R)-1-[(2S)-2-(3-{[(3S,7aR)-7a-{[(4-{3,8-diazabicyclo[3.2.1]octan-3-yl}-7-(8-ethyl-3-hydroxynaphthalen-1-yl)-8-fluoropyrido[4,3-d]pyrimidin-2-yl)oxy]methyl}-hexahydro-1H-pyrrolizin-3-yl]methoxy}-1,2-oxazol-5-yl)-3-methylbutanoyl]-4-hydroxy-N-[(1S)-1-[4-(4-methyl-1,3-thiazol-5-yl)phenyl]ethyl]pyrrolidine-2-carboxamide] the Dmax was 80 to 100%.

In the case of `CCc1cccc2cc(O)cc(-c3ncc4c(N5CC6CCC(C5)N6)nc(N5CCC(CN6CCC(CC7CN(c8cc([C@@H](C(=O)N9C[C@H](O)C[C@H]9C(=O)N[C@@H](C)c9ccc(-c%10scnc%10C)cc9)C(C)C)on8)C7)CC6)CC5)nc4c3F)c12` [Compound 193, (2S,4R)-1-[(2S)-2-(3-{3-[(1-{[1-(4-{3,8-diazabicyclo[3.2.1]octan-3-yl}-7-(8-ethyl-3-hydroxynaphthalen-1-yl)-8-fluoropyrido[4,3-d]pyrimidin-2-yl)piperidin-4-yl]methyl}piperidin-4-yl)methyl]azetidin-1-yl}-1,2-oxazol-5-yl)-3-methylbutanoyl]-4-hydroxy-N-[(1S)-1-[4-(4-methyl-1,3-thiazol-5-yl)phenyl]ethyl]pyrrolidine-2-carboxamide], the DC50 is reported as over 3 µM.

`CCc1cccc2cccc(-c3ncc4c(N5CC6CCC(C5)N6)nc(OC[C@@H]5CC[C@@H](COC(=O)N6CC(Oc7cc([C@H](C(=O)N8C[C@H](O)C[C@H]8C(=O)N[C@@H](C)c8ccc(-c9scnc9C)cc8)C(C)C)on7)C6)N5C)nc4c3F)c12` [Compound 223, [(2S,5S)-5-{[(4-{3,8-diazabicyclo[3.2.1]octan-3-yl}-7-(8-ethylnaphthalen-1-yl)-8-fluoropyrido[4,3-d]pyrimidin-2-yl)oxy]methyl}-1-methylpyrrolidin-2-yl]methyl 3-({5-[(2R)-1-[(2S,4R)-4-hydroxy-2-{[(1S)-1-[4-(4-methyl-1,3-thiazol-5-yl)phenyl]ethyl]carbamoyl}pyrrolidin-1-yl]-3-methyl-1-oxobutan-2-yl]-1,2-oxazol-3-yl}oxy)azetidine-1-carboxylate] was tested, and the Dmax was 80 to 100% and the DC50 was under 0.6 µM.

Source: patent US20250206732A1, “COMPOUNDS AND METHODS FOR THE TARGETED DEGRADATION OF KRAS” (Arvinas Operations, Inc., priority 2022, published 2025)
